{"source": "paper PMC9650428", "about": "“Mutagenesis and functional analysis of SotB: A multidrug transporter of the major facilitator superfamily from Escherichia coli” (Frontiers in Microbiology, 2022)", "key": {"[1]": {"target": "T1, SotB N343A (Escherichia coli, UniProt P31122, N343A)", "T1 construct": "The full-length sotB and lapC genes from the E. coli MG1655 genome were subcloned into the cloning vector pET28a; 8xHis (C); made in house; host or cells: E. coli C43(DE3)", "T1 sequence (P31122 1-396 N343A)": "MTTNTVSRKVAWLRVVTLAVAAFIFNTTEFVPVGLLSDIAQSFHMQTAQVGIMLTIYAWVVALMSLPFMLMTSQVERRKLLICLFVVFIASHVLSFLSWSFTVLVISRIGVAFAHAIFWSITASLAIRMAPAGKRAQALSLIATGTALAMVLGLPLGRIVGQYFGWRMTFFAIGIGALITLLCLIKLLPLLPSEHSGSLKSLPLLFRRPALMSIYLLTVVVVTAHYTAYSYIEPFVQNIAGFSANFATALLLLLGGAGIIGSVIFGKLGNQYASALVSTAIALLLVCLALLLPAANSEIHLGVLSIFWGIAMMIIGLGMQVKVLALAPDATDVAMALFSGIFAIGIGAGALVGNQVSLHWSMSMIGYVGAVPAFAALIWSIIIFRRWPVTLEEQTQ", "assay": "SPR affinity assay, SotB variant N343A", "format": "binding", "description": "(§1) The instrument used in surface plasmon resonance (SPR) affinity assays was OpenSPR (Nicoya, Canada) and the chip used was COOH sensor chip (Nicoya, Canada). SotB and its variants were as ligands. IPTG, L-arabinose, D-xylose, D-glucose, D-fructose, and D-mannose were as small molecules. Using HSB-EP buffer (10 mM HEPES, 150 mM NaCl, 3 mM EDTA, 0.005% Tween-20, pH7.4) as test buffer and setting flow rate 150 μl/min after installed COOH chip according to OpenSPRTM instrument standard operating procedure. After the signal baseline was reached, loading 200 μl 80% isopropyl alcohol and ran for 10 s to drain bubbles. After reaching baseline, the sample ring was rinsed with HSB-EP buffer and emptied with air. After the signal reached the baseline, loading 200 μl EDC (400 mM, Sigma)/NHS (100 mM, Sigma; 1:1) solution with a flow rate 20 μl/min for 4 min. Then, loading 200 μl ligand (SotB/SotB variants) diluted by the activation buffer (sodium acetate, 10 mM, pH3.5) and ran for 4 min (20 μl/min). Then the sample ring was rinsed with HSB-EP buffer and emptied with air. Loading 200 μl 1 M ethanolamine (Sigma) blocking solution (20 μl/min, 4 min), rinsed the sample ring with HSB-EP buffer, and emptied the sample ring with air. Observing baseline for 5 min to ensure stability. The small molecules were diluted with PBS buffer (2 mM of KH2PO4, 10 mM of Na2HPO4, 2.7 mM of KCl, and 137 mM of NaCl at pH 7.4), and the concentration was shown in the experimental results. The flow rate for small molecules was performed at 20 μl/min. The binding time of small molecule and ligand was 240 s, and the dissociation was 240 s. The analysis software used for the experimental results was TraceDrawer, and the analysis method was one-to-one analysis model."}, "[2]": {"target": "T2, SotB S339A (Escherichia coli, UniProt P31122, S339A)", "T2 construct": "The full-length sotB and lapC genes from the E. coli MG1655 genome were subcloned into the cloning vector pET28a; 8xHis (C); made in house; host or cells: E. coli C43(DE3)", "T2 sequence (P31122 1-396 S339A)": "T1 sequence (P31122 1-396 N343A) with S339A, A343N", "assay": "SPR affinity assay, SotB variant S339A", "details": "read-out: KD, binding affinity with S339A", "description": "as §1, with “The small molecules were diluted with PBS buffer (2 mM of KH2PO4, 10 mM of Na2HPO4, 2.7 mM of KCl, and 137 mM of NaCl at pH 7.4), and the concentration was shown in the experimental results. The flow rate for small molecules was performed at 20 μl/min. The binding time of small molecule and ligand was 240 s, and the dissociation was 240 s. The analysis software used for the experimental results was TraceDrawer, and the analysis method was one-to-one analysis model.” left out"}, "[3]": {"target": "T3, SotB H115A (Escherichia coli, UniProt P31122, H115A)", "T3 construct": "The full-length sotB and lapC genes from the E. coli MG1655 genome were subcloned into the cloning vector pET28a; 8xHis (C); made in house; host or cells: E. coli C43(DE3)", "T3 sequence (P31122 1-396 H115A)": "T1 sequence (P31122 1-396 N343A) with H115A, A343N", "assay": "SPR affinity assay, SotB variant H115A", "format": "binding", "description": "as §1"}}, "note": "Where a chain is given by its changes, count along the chain named.", "data": [{"smiles": "OC1OC[C@H](O)[C@H](O)[C@H]1O", "note": "(mixture of isomers) [L-arabinose]", "values": [{"measurement": "Binding affinity of N343A, fold lower than the wild-type protein", "setting": "[1]; N343A vs wild-type SotB", "result": 3.5, "unit": "fold"}, {"measurement": "Kd", "setting": "[1]; SotB variant N343A, read-out: KD, binding affinity with N343A", "result": 14.5, "unit": "mM"}, {"measurement": "Kd", "setting": "[2]", "result": 3.5, "unit": "mM"}, {"measurement": "Binding affinity of H115A, fold lower than the wild-type protein", "setting": "[3]; H115A vs wild-type SotB", "result": 3.2, "unit": "fold"}, {"measurement": "Kd", "setting": "[3]; SotB variant H115A, read-out: KD, binding affinity with H115A", "result": 13.3, "unit": "mM"}]}]}
